Values of other authors as cited in patent publication US20110208161A1, “INT[…] […] TO THE CENTRAL NERVOUS SYSTEM” (priority 2009, published 2011).
Where a SMILES comes first, the peptide text is derived from it.

Target: T1, μ receptor (Oryctolagus cuniculus, UniProt G1TAQ8)
T1 construct: host or cells: brain tissue at the fourth ventricle, in vivo
Details: infusion into the fourth ventricle

T1 sequence (G1TAQ8 1-401): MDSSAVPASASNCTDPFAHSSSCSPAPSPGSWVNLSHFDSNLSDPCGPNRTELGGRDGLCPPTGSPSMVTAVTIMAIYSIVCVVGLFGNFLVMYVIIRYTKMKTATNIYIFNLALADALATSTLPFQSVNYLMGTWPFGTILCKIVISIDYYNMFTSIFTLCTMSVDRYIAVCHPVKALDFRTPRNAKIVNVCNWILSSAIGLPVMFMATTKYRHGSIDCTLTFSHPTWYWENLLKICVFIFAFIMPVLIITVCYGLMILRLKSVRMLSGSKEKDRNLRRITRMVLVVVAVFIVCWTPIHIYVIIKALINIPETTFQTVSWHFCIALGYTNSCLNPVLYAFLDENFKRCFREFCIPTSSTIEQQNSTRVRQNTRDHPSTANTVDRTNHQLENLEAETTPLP

## NC(=O)[C@@H]1CCCN1C(=O)[C@H](Cc1ccccc1)NC(=O)[C@@H]1CCCN1C(=O)[C@@H](N)Cc1ccc(O)cc1 [morphiceptin] (H-YPFP-NH2)
  effect on spinal cord nociceptive transmission: attenuate spinal cord nociceptive transmission
